Measured values published in patent US20090184062A1, “METHOD FOR INHIBITING BIOFILM GROWTH” (PPG INDUSTRIES OHIO, INC., priority 2008, published 2009).
Marks after values point to notes of the source that are not given here.

Columns and labels:
[1] = tested on: Sphaerotilus natans (ATCC 15291) biofilm; assay: Biocidal effect on an existing Sphaerotilus natans biofilm in Erlenmeyer flasks (agar plate count of surviving organisms); format: cell-based
Description: In the following examples, the sheathed filamentous bacterium Sphaerotilus natans (ATCC 15291) was used. A freeze-dried sample of the bacterium was obtained from the American Type Culture Collection (ATCC, Rockville, Md.). ATCC growth medium (CYGA #1103 broth) was prepared by dissolving (per liter of tap water): 5 grams casitone (pancreatic digest of casein, Difco #225930), which is available from Voight Global Distributions, Inc., Lawrence, Kans.; 10 grams of glycerol; and 1 gram of yeast extract. The growth medium was sterilized at 120° C. for 15 minutes. The sample of Sphaerotilus natans obtained from ATCC was cultured in the CYGA growth medium and transferred to agar plates prepared from CYGA medium plus 1.5 weight percent agar. The agar plates were incubated at 30° C. The bacterium from these agar plates was transferred (subcultured) every few weeks to fresh agar plates to maintain the viability of the microorganism.
3-chloro-4,4-dimethyl-2-oxazolidinone (DMO-Cl) reagent was prepared by manually mixing a selected amount of 4,4-dimethyl-2-oxazolidinone (DMO) and a hypochlorite-containing stock solution in an Erlenmeyer flask, and allowing the mixture to stand for 8-10 hours at room temperature (about 23° C.) prior to use in the experiments. The hypochlorite-containing stock solution was prepared by dissolving calcium hypochlorite in deionized water in an Erlenmeyer flask. The amount of calcium hypochlorite used provided a hypochlorite concentration of approximately 1000 mg/L. The DMO used was Sustains Summer Shield (approximately 17.5 wt. % DMO, density of 1.14 g/mL), which is available from PPG Industries, Inc. The mixture was diluted to the desired concentration with sterile tap water before use in the experiments. Sterile tap water used in the experiments was prepared by autoclaving tap water at 120° C. for 15 minutes. The sterile tap water contained no measurable level of chlorine.
A loop full of Sphaerotilus natans (S. Natans) from an Agar plate containing the S. Natans culture was inoculated in 150 mL of CYGA #1103 growth medium and agitated in a temperature-controlled shaker at 30° C. and 150 rpm for 20 hours to prepare a pre-culture. Five (5) mL of this pre-culture were inoculated into each of a series of 250 mL Erlenmeyer flasks containing 150 mL of CYGA growth medium for batch cultivation of the S. Natans. The bacterium were cultivated at 30° C. for 96 hours on a rotary shaker at 150 rpm. At these conditions, a biofilm layer approximately 2-3 mm high formed on the inside wall of each of the Erlenmeyer flasks near the liquid surface. Approximately 50 to 75 percent of the liquid growth medium in the flasks was carefully decanted, leaving the biofilm layer intact. The decanted liquid growth medium was discarded.
For the control, sterile tap water was added to an Erlenmeyer flask. In other tests (as shown in Table I), various levels of hypochlorous acid (HOCl) or 3-chloro-4,4-dimethyl-2-oxazolidinone (DMO-Cl) were added to an Erlenmeyer flask. The amount of tap water used was approximately equal to the volume of decanted growth medium. The flasks were placed on a temperature controlled rotary shaker (30° C., 150 rpm) for 60 minutes. Total chlorine and free chlorine levels in the liquid medium in the flasks were measured at the beginning and at the end of the 60 minute contact time. At the end of the 60 minute contact time, the biofilm ring was carefully scraped from the flask surface and added to the liquid medium in the flask to ensure that the liquid medium contained the entire biofilm population for enumeration. The liquid in the flask was vigorously agitated to uniformly disperse the organisms. The liquid in the flask was sampled and serially diluted in sterile tap water for agar plating to enumerate the surviving organisms. Agar plating was performed in duplicate and the number of microorganism colonies counted after 48 hours of growth at approximately 30° C. […]

[2] = Total and free chlorine levels in the liquid medium at the end of the contact time (Hach DPD test kit); format: physicochemical; conditions: for End FC (free chlorine after one hour) / End TC (total chlorine after one hour): Table I, after 60 min with biofilm, expressed as mg/L Cl2; for End FC (free chlorine at end) / End TC (total chlorine at end): Table II, 30 min contact, as Cl2
Description: For the control, sterile tap water was added to an Erlenmeyer flask. In other tests (as shown in Table I), various levels of hypochlorous acid (HOCl) or 3-chloro-4,4-dimethyl-2-oxazolidinone (DMO-Cl) were added to an Erlenmeyer flask. The amount of tap water used was approximately equal to the volume of decanted growth medium. The flasks were placed on a temperature controlled rotary shaker (30° C., 150 rpm) for 60 minutes. Total chlorine and free chlorine levels in the liquid medium in the flasks were measured at the beginning and at the end of the 60 minute contact time. At the end of the 60 minute contact time, the biofilm ring was carefully scraped from the flask surface and added to the liquid medium in the flask to ensure that the liquid medium contained the entire biofilm population for enumeration. The liquid in the flask was vigorously agitated to uniformly disperse the organisms. The liquid in the flask was sampled and serially diluted in sterile tap water for agar plating to enumerate the surviving organisms. Agar plating was performed in duplicate and the number of microorganism colonies counted after 48 hours of growth at approximately 30° C.
The procedure of Example 1 was followed except that the concentration of DMO-Cl was varied from 15 μL/L to 60 μL/L, and the contact time was 30 minutes to allow a better opportunity for survival and detection of the S. Natans microorganism. Symbols and footnotes used in Table II that are the same as those found in Table I have the same meaning.

[3] = Table I, 60 min contact, initial total chlorine 5.4 mg/L (DMO-Cl prepared with 50 μL/L Sustain Summer Shield), average of duplicates
[4] = Table I, 60 min contact, initial total chlorine about 1 mg/L (HOCl 1.1; DMO-Cl 1.04, prepared with 50 μL/L Sustain Summer Shield, approx. 10 mg/L DMO), average of duplicates
[5] = initial total chlorine 5.4 mg/L
[6] = initial total chlorine about 1 mg/L (HOCl 1.1; DMO-Cl 1.04)
[7] = DMO-Cl prepared with 15 μL/L Sustain Summer Shield, initial total chlorine 1.2 mg/L
[8] = DMO-Cl prepared with 30 μL/L Sustain Summer Shield, initial total chlorine 1.18 mg/L
[9] = DMO-Cl prepared with 60 μL/L Sustain Summer Shield, initial total chlorine 1.19 mg/L
[10] = HOCl, initial total chlorine 1.1 mg/L

Compound | Final Cell Count [1, 3] [cfu/mL] | Final Cell Count [1, 4] | Final Cell Count ([1]; Table II, 30 min contact, DMO-Cl prepared with 15 μL/L Sustain Summer Shield (approx. 3 mg/L DMO), initial total chlorine 1.2 mg/L) | Final Cell Count ([1]; Table II, 30 min contact, DMO-Cl prepared with 30 μL/L Sustain Summer Shield (approx. 6 mg/L DMO), initial total chlorine 1.18 mg/L) | Final Cell Count ([1]; Table II, 30 min contact, DMO-Cl prepared with 60 μL/L Sustain Summer Shield (approx. 12 mg/L DMO), initial total chlorine 1.19 mg/L) [cfu/mL] | reduction in viable cell numbers ([1]; existing S. Natans biofilm, 60 minutes contact time (Table I)) [log] | End FC (free chlorine after one hour) [2, 5] [mg/L] | End TC (total chlorine after one hour) [2, 5] [mg/L] | End FC (free chlorine after one hour) [2, 6] [mg/L] | End TC (total chlorine after one hour) [2, 6] [mg/L] | End FC (free chlorine at end) [2, 7] [mg/L] | End TC (total chlorine at end) [2, 7] [mg/L] | End FC (free chlorine at end) [2, 8] [mg/L] | End TC (total chlorine at end) [2, 8] [mg/L] | End FC (free chlorine at end) [2, 9] [mg/L] | End TC (total chlorine at end) [2, 9] [mg/L] | control of biofilm in words ([1]; between 50 and 60 μL/L of DMO with a source of free available chlorine, contact times between 30 and 60 minutes) | Final Cell Count ([1]; Table II, 30 min contact, HOCl, initial total chlorine 1.1 mg/L) | End FC (free chlorine at end) [2, 10] [mg/L] | End TC (total chlorine at end) [2, 10] [mg/L]
CC1(C)COC(=O)N1Cl [DMO-Cl, 3-chloro-4,4-dimethyl-2-oxazolidinone] | 0 | 25^a cfu/mL | 2.1 × 10^4 cfu/mL | 1.6 × 10^4 cfu/mL | 0 | ≥ 3 | 0.2 | 4.7 | 0.1 | 0.4 | 0.05 | 0.52 | 0.07 | 0.47 | 0 | 0.41 | – | – | – | –
CC1(C)COC(=O)N1 [DMO, 4,4-dimethyl-2-oxazolidinone] | – | – | – | – | – | – | – | – | – | – | – | – | – | – | – | – | complete control | – | – | –
OCl [HOCl, Hypochlorous Acid, reference compound] | 0 | 1.9 × 10^4 cfu/mL | – | – | – | – | 1.6 | 3.1 | 0 | 0.3 | – | – | – | – | – | – | – | 2.3 × 10^4 cfu/mL | 0.1 | 0.31
